Among the test systems are SNB-75 CNS; SW-620 colon; T-47D breast; RPMI-8226 leukemia; MDA-MB-435; SN12C renal; NCI-H522 lung; 786-0 renal; HL-60(TB) leukemia; HT29 colon.
Holding throughout (test): growth of human tumour cells (NCI), 48 h

Values joined by “and” are separate entries in the source; they are usually repeats but may differ in a detail not shown here. Equal values may be shown once.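 How tested: cells in 96-well plates exposed to compound for 48 hours at five concentrations. GI50: concentration for 50% inhibition of growth. At the TGI there is no net growth.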

`C[C@@H](N)C1CCC(C(=O)Nc2ccncc2)CC1` (some centres not stated): the GI50 in the test on SNB-75 CNS was 5.58 µM; in the test with SW-620 colon it was over 100 µM; in the test with T-47D breast it was over 100 µM; in the test with RPMI-8226 leukemia, over 100 µM; in the test with MDA-MB-435 it was over 100 µM; in the test with SN12C renal, over 100 µM. For the same molecule, the GI50 in the test on NCI-H522 lung, in the test on 786-0 renal, in the test with HL-60(TB) leukemia and with HT29 colon was over 100 µM each time. Moreover, the TGI with SNB-75 CNS, in the test with SW-620 colon, with T-47D breast, in the test with RPMI-8226 leukemia, with MDA-MB-435 and in the test with SN12C renal was over 100 µM throughout. In addition, the TGI in the test with NCI-H522 lung, in the test with 786-0 renal, with HL-60(TB) leukemia and in the test on HT29 colon was over 100 µM in each case.
For the molecule `COc1ccccc1-c1cc(/C=C2\C(=O)Nc3ncc(Br)cc32)cc(Br)c1O`, the GI50 in the test on SNB-75 CNS was 6.03 µM; with SW-620 colon, 19.4 µM; in the test on T-47D breast, 10.6 µM; with RPMI-8226 leukemia, 9.59 µM; in the test with MDA-MB-435, 7.47 µM; in the test on SN12C renal it was 12.1 µM. The GI50 in the test on NCI-H522 lung was 6.1 µM; with 786-0 renal, 12.2 µM; with HL-60(TB) leukemia it was 7.47 µM; in the test with HT29 colon, 18.9 µM. For the same molecule, the TGI in the test with SNB-75 CNS, in the test on SW-620 colon, in the test on T-47D breast, with RPMI-8226 leukemia, in the test on MDA-MB-435 and in the test with SN12C renal was over 25 µM each time. Further, the TGI in the test on NCI-H522 lung is over 23.3 µM; in the test on 786-0 renal, over 25 µM; in the test with HL-60(TB) leukemia, 23.7 µM; in the test on HT29 colon, over 25 µM.
With `C/C1=C/C(=O)O[C@@H]2C[C@@H](CC[C@H](C)/C=C\C=C\CC1)O[C@@](O)([C@@H]1CSC(=O)N1CO)C2`, the GI50 with SNB-75 CNS is 0.0151 µM; with SW-620 colon, 12.6 µM; with T-47D breast it was 0.0593 µM; in the test with RPMI-8226 leukemia, 0.161 µM; in the test on MDA-MB-435, 0.29 µM; in the test with SN12C renal it was 0.0485 µM. The GI50 in the test on NCI-H522 lung is 0.0371 µM; with 786-0 renal, 0.137 µM; in the test with HL-60(TB) leukemia it was 0.253 µM; in the test on HT29 colon, 0.0562 µM. Also, the TGI is 0.0523 µM in the test on SNB-75 CNS; 30 µM in the test on SW-620 colon; 47.6 µM in the test with T-47D breast; 23.1 µM in the test on RPMI-8226 leukemia; over 88.6 µM in the test with MDA-MB-435; over 57.4 µM in the test with SN12C renal. The TGI in the test on NCI-H522 lung stood at 2.84 µM; with 786-0 renal, 12.3 µM; in the test with HL-60(TB) leukemia, 18.8 µM; in the test with HT29 colon it was 20.3 µM.
For the molecule `CNC(=O)c1c(NC(=O)c2ccc(C(F)(F)F)cc2)sc2c1CCC(=O)C2`, the GI50 in the test with SNB-75 CNS is 0.714 µM; with SW-620 colon it was 0.235 µM; with T-47D breast, 0.305 µM; with RPMI-8226 leukemia, 0.272 µM; in the test with MDA-MB-435, 0.818 µM; with SN12C renal, 0.69 µM. Also, the GI50 was 0.251 µM in the test with NCI-H522 lung, 0.415 µM with 786-0 renal, 0.363 µM in the test with HL-60(TB) leukemia and 0.555 µM with HT29 colon. For the same molecule, the TGI stood at 3.95 µM in the test on SNB-75 CNS; 1.64 µM in the test on SW-620 colon; 2.38 µM in the test on T-47D breast; 0.884 µM with RPMI-8226 leukemia; 3.55 µM with MDA-MB-435; 24.1 µM in the test with SN12C renal. Also, the TGI is 1.92 µM in the test on NCI-H522 lung, 15.1 µM with 786-0 renal, 2.09 µM in the test with HL-60(TB) leukemia and 5.27 µM in the test with HT29 colon.
As for `Cc1cccc(-c2nn3c(c2-c2ccnc4ccc(C(N)=O)cc24)CCC3)n1`, the GI50 was over 100 µM with SNB-75 CNS; over 100 µM in the test on SW-620 colon; 57.6 µM in the test on T-47D breast; over 100 µM in the test on RPMI-8226 leukemia; over 91.4 µM with MDA-MB-435; over 100 µM with SN12C renal. Moreover, the GI50 is over 100 µM in the test with NCI-H522 lung, over 100 µM in the test on 786-0 renal, over 100 µM with HL-60(TB) leukemia and 52.5 µM in the test on HT29 colon. Besides, the TGI in the test on SNB-75 CNS, in the test with SW-620 colon, with T-47D breast, in the test with RPMI-8226 leukemia, in the test on MDA-MB-435 and with SN12C renal was over 100 µM throughout. The TGI in the test on NCI-H522 lung, in the test on 786-0 renal, with HL-60(TB) leukemia and with HT29 colon was over 100 µM in each case.
In the case of `CCc1c2c(nc3cc4c(c(N)c13)OCO4)-c1cc3c(c(=O)n1C2)COC(=O)[C@]3(O)CC`, the GI50 with SNB-75 CNS was under 0.001 µM; with T-47D breast, under 0.001 µM; in the test on MDA-MB-435, 0.0241 µM and 0.0796 µM; in the test on SN12C renal it was under 0.001 µM; in the test on HL-60(TB) leukemia, under 0.001 µM; in the test with HT29 colon, 0.0145 µM. Further, the TGI with SW-620 colon is over 100 µM; in the test with RPMI-8226 leukemia it was 0.317 µM and 2.77 µM; in the test on MDA-MB-435, 2.01 µM and 1.96 µM; in the test on SN12C renal, over 100 µM; in the test on NCI-H522 lung, 1.36 µM and 0.663 µM; in the test with 786-0 renal, over 100 µM. Also, in the test with HT29 colon, the TGI was over 100 µM.
On to `CC1=C(C(=O)Nc2ccccc2C)C(c2ccc(C3C(C(=O)Nc4ccccc4C)=C(C)NC(C)=C3C(=O)Nc3ccccc3C)cc2)C(C(=O)Nc2ccccc2C)=C(C)N1`, for which the TGI in the test on SNB-75 CNS turned out to be 30.9 µM; in the test on SW-620 colon it was 6.3 µM; with T-47D breast, 20.5 µM; in the test on RPMI-8226 leukemia, 7.85 µM; with MDA-MB-435 it was 14.3 µM; in the test on SN12C renal it was 2.85 µM. Besides, the TGI amounted to 3.72 µM in the test with NCI-H522 lung, 17.3 µM with 786-0 renal, 6.15 µM in the test with HL-60(TB) leukemia and 4.62 µM with HT29 colon.
For `CCN1C(=O)N(CC)C2C1NN=c1s/c(=C\c3ccccc3F)c(=O)n12` (configuration not stated), the GI50 was 0.0133 µM with SNB-75 CNS; 0.0379 µM in the test on SW-620 colon; 35.7 µM in the test on T-47D breast; 0.0415 µM in the test with RPMI-8226 leukemia; 0.0148 µM in the test on MDA-MB-435; 0.0522 µM with SN12C renal. Moreover, the GI50 in the test on NCI-H522 lung was 0.0192 µM; in the test on 786-0 renal it was 0.061 µM; in the test on HL-60(TB) leukemia, 0.0239 µM; with HT29 colon, 0.0319 µM. Further, the TGI in the test on SNB-75 CNS is 0.0711 µM; in the test with SW-620 colon it was over 100 µM; in the test with T-47D breast it was over 100 µM; in the test on RPMI-8226 leukemia it was over 37.7 µM; in the test with MDA-MB-435, 0.052 µM; in the test with SN12C renal, over 100 µM. The values for the TGI in the test on NCI-H522 lung, with 786-0 renal and in the test with HL-60(TB) leukemia were 1.3 µM, 52.8 µM and 0.0607 µM, respectively.

(Values after PubChem BioAssay (NCI).)
